Assay results from patent publication US6372804B1, “Noxious-insect repellent” (Kanebo, Ltd., priority 1991, dated 2002).

test system: imagoes of the tiger mosquito, Aedes albopictus; test: noxious-insect repellency test (treated forearm in a cage of tiger mosquitoes, percent repellency from biting marks); assay type: in vivo; conditions: content 0.05% (wt. %) in 40 wt. % ethanol aqueous solution; an hour after application
Protocol: In each example, the noxious-insect repellency test was conducted as follows:
Test method of noxious-insect repelling effect and durability thereof In order to assess the repelling effect against imagoes of the tiger mosquito, Aedes albopictus, the following test was conducted at a room temperature of 30° C. and a relative humidity of 70% in an air-conditioned room. 10 ml each of test samples was applied to left and right forearms. Each treated forearm was introduced into a wire gauze cage (20 cm L.×15 cm Dia.) containing 50 female and 50 male tiger mosquitoes 5-7 days old after eclosion, for 15 minutes to afford time for biting. The assessment was repeated 30 minutes, 1 hour, 2 hours, 4 hours and 6 hours after the test sample was applied. The number of marks made by biting within each biting time was counted and a percent repellency was calculated using the following formula:
Percent repellency=(X−Y)/X×100 (%)
X: the number of the marks made by biting when the test sample was not applied,
Y: the number of the marks made by biting when the test sample was applied.

Row | Structure (SMILES) | Percent repellency
1 | CC(C)C1CCC(C)C(CO)C1O (centres unmarked) [HMMO, 2-hydroxymethyl-menthol] | 18%

same assay, conditions: content 0.1% (wt. %) in 40 wt. % ethanol aqueous solution; an hour after application

Row | Structure (SMILES) | Percent repellency
2 | CC1CCC(C(C)(C)O)C(=O)C1C (centres unmarked) [8-hydroxy-2-methyl-p-menthan-3-one] | 30%
3 | CC(C)C1CCC(C)C(CO)C1O (centres unmarked) [HMMO, 2-hydroxymethyl-menthol] | 48%

same assay, conditions: content 1% (wt. %) in 40 wt. % ethanol aqueous solution; an hour after application

Row | Structure (SMILES) | Percent repellency
4 | CC1CCC(C(C)(C)O)C(=O)C1C (centres unmarked) [8-hydroxy-2-methyl-p-menthan-3-one] | 70%
5 | CC(C)C1CCC(C)C(CO)C1O (centres unmarked) [HMMO, 2-hydroxymethyl-menthol] | 78%

same assay, conditions: content 3% (wt. %) in 40 wt. % ethanol aqueous solution; an hour after application

Row | Structure (SMILES) | Percent repellency
6 | CC1CCC(C(C)(C)O)C(=O)C1C (centres unmarked) [8-hydroxy-2-methyl-p-menthan-3-one] | 94%
7 | CC(C)C1CCC(C)C(CO)C1O (centres unmarked) [HMMO, 2-hydroxymethyl-menthol] | 92%

same assay, conditions: lotion or milky lotion containing the compound, tiger mosquito imagoes

Row | Structure (SMILES) | noxious-insect repelling effect and durability (result in words)
8 | CCCCC(O)C1CC(C)CCC1=O (centres unmarked) [2-(1-hydroxyamyl)-4-methyl-cyclohexanone] | excellent noxious-insect repelling effect and durability
9 | CCCC(O)C1C(O)CCC1CC (centres unmarked) [2-(1-hydroxybutyl)-3-ethyl-cyclopentanol] | excellent noxious-insect repelling effect and durability
10 | CCCC(O)C1C(=O)CCC1CC (centres unmarked) [2-(1-hydroxybutyl)-3-ethyl-cyclopentanone] | excellent noxious-insect repelling effect and durability
11 | CC(O)C1C(O)CCC(C)C1C (centres unmarked) [2-(1-hydroxyethyl)-3,4-dimethyl-cyclohexanol] | excellent noxious-insect repelling effect and durability
12 | CC(O)C1C(=O)CCC(C)C1C (centres unmarked) [2-(1-hydroxyethyl)-3,4-dimethyl-cyclohexanone] | excellent noxious-insect repelling effect and durability
13 | CC1CCC(O)C(C(C)O)C1 (centres unmarked) [2-(1-hydroxyethyl)-4-methyl-cyclohexanol] | excellent noxious-insect repelling effect and durability
14 | CC1CCC(=O)C(C(C)O)C1 (centres unmarked) [2-(1-hydroxyethyl)-4-methyl-cyclohexanone] | excellent noxious-insect repelling effect and durability
15 | CC(O)C1CCCCCCCCC1O (centres unmarked) [2-(1-hydroxyethyl)-cyclodecanol] | excellent noxious-insect repelling effect and durability
16 | CC(O)C1CCCCCCCCCCC1=O (centres unmarked) [2-(1-hydroxyethyl)-cyclododecanone] | excellent noxious-insect repelling effect and durability
17 | CC(O)C1CCCCCC1O (centres unmarked) [2-(1-hydroxyethyl)-cycloheptanol] | excellent noxious-insect repelling effect and durability
18 | CC(O)C1CCCCCC1=O (centres unmarked) [2-(1-hydroxyethyl)-cycloheptanone] | excellent noxious-insect repelling effect and durability
19 | CC(O)C1CCCCCCC1O (centres unmarked) [2-(1-hydroxyethyl)-cyclooctanol] | excellent noxious-insect repelling effect and durability
20 | CC(O)C1CCCCCCC1=O (centres unmarked) [2-(1-hydroxyethyl)-cyclooctanone] | excellent noxious-insect repelling effect and durability
21 | CC1CCC(C(C)(C)O)C1=O (centres unmarked) [2-(1-hydroxyisopropyl)-5-methyl-cyclopentanone] | excellent noxious-insect repelling effect and durability
22 | CCC(O)C1CC(C)CCC1O (centres unmarked) [2-(1-hydroxypropyl)-4-methyl-cyclohexanol] | excellent noxious-insect repelling effect and durability
23 | CCC1(CO)CCCCC1O (centres unmarked) [2-hydroxymethyl-2-ethyl-cyclohexanol] | excellent noxious-insect repelling effect and durability
24 | CCC1(CO)CCCC1O (centres unmarked) [2-hydroxymethyl-2-ethyl-cyclopentanol] | excellent noxious-insect repelling effect and durability
25 | CC(C)C1(CO)CCCCC1O (centres unmarked) [2-hydroxymethyl-2-isopropyl-cyclohexanol] | excellent noxious-insect repelling effect and durability
26 | CC(C)C1(CO)CCCC1O (centres unmarked) [2-hydroxymethyl-2-isopropyl-cyclopentanol] | excellent noxious-insect repelling effect and durability
27 | CCCCCCCCC1(CO)CCCCC1O (centres unmarked) [2-hydroxymethyl-2-octyl-cyclohexanol] | excellent noxious-insect repelling effect and durability
28 | CCCCCCCCC1(CO)CCCC1O (centres unmarked) [2-hydroxymethyl-2-octyl-cyclopentanol] | excellent noxious-insect repelling effect and durability
29 | CCCCCCCCCCCC1(CO)CCCCC1O (centres unmarked) [2-hydroxymethyl-2-undecyl-cyclohexanol] | excellent noxious-insect repelling effect and durability
30 | CCCCCCCCCCCC1(CO)CCCC1O (centres unmarked) [2-hydroxymethyl-2-undecyl-cyclopentanol] | excellent noxious-insect repelling effect and durability
31 | CC1CCC(=O)C(CO)C1C (centres unmarked) [2-hydroxymethyl-3,4-dimethyl-cyclohexanone] | excellent noxious-insect repelling effect and durability
32 | CC(C)(C)C1CCC(O)C(CO)C1 (centres unmarked) [2-hydroxymethyl-4-(t-butyl)-cyclohexanol] | excellent noxious-insect repelling effect and durability

Row | Structure (SMILES) | noxious-insect repelling effect and durability (result in words)
33 | CC(C)(C)C1CCC(=O)C(CO)C1 (centres unmarked) [2-hydroxymethyl-4-(t-butyl)-cyclohexanone] | excellent noxious-insect repelling effect and durability
34 | CCC1CC(O)C(CO)C1 (centres unmarked) [2-hydroxymethyl-4-ethyl-cyclopentanol] | excellent noxious-insect repelling effect and durability
35 | CCC1CC(=O)C(CO)C1 (centres unmarked) [2-hydroxymethyl-4-ethyl-cyclopentanone] | excellent noxious-insect repelling effect and durability
36 | CC(C)C1CC(C)C(O)C(CO)C1 (centres unmarked) [2-hydroxymethyl-4-isopropyl-6-methyl-cyclohexanol] | excellent noxious-insect repelling effect and durability
37 | CC1CC(C(C)C)CC(CO)C1=O (centres unmarked) [2-hydroxymethyl-4-isopropyl-6-methyl-cyclohexanone] | excellent noxious-insect repelling effect and durability
38 | CC1CCC(=O)C(CO)C1 (centres unmarked) [2-hydroxymethyl-4-methyl-cyclohexanone] | excellent noxious-insect repelling effect and durability
39 | O=C1CCCCCCCCCCC1CO (centres unmarked) [2-hydroxymethyl-cyclododecanone] | excellent noxious-insect repelling effect and durability
40 | OCC1CCCCCCC1O (centres unmarked) [2-hydroxymethyl-cyclooctanol] | excellent noxious-insect repelling effect and durability
41 | O=C1CCCCCCC1CO (centres unmarked) [2-hydroxymethyl-cyclooctanone] | excellent noxious-insect repelling effect and durability
42 | CC(C)C(O)C1C2CCC(C)(C1O)C2(C)C (centres unmarked) [3-(1-hydroxy-2-methylpropyl)-borneol] | excellent noxious-insect repelling effect and durability
43 | CC(C)C(O)C1C(=O)C2(C)CCC1C2(C)C (centres unmarked) [3-(1-hydroxy-2-methylpropyl)-camphor] | excellent noxious-insect repelling effect and durability
44 | CCCC(O)C1C2CCC(C)(C1O)C2(C)C (centres unmarked) [3-(1-hydroxybutyl)-borneol] | excellent noxious-insect repelling effect and durability
45 | CCCC(O)C1C(=O)C2(C)CCC1C2(C)C (centres unmarked) [3-(1-hydroxybutyl)-camphor] | excellent noxious-insect repelling effect and durability
46 | CC(O)C1C2CCC(C)(C1O)C2(C)C (centres unmarked) [3-(1-hydroxyethyl)-borneol] | excellent noxious-insect repelling effect and durability
47 | CC(O)C1C(=O)C2(C)CCC1C2(C)C (centres unmarked) [3-(1-hydroxyethyl)-camphor] | excellent noxious-insect repelling effect and durability
48 | CCCCCC(O)C1C(=O)C2(C)CCC1C2(C)C (centres unmarked) [3-(1-hydroxyhexyl)-camphor, reference compound] | does not exhibit the repelling effect
49 | CC12CCC(C(CO)C1=O)C2(C)C (centres unmarked) [3-(1-hydroxymethyl)-camphor] | excellent noxious-insect repelling effect and durability
50 | CCC(O)C1C2CCC(C)(C1O)C2(C)C (centres unmarked) [3-(1-hydroxypropyl)-borneol] | excellent noxious-insect repelling effect and durability
51 | CCC(O)C1C(=O)C2(C)CCC1C2(C)C (centres unmarked) [3-(1-hydroxypropyl)-camphor] | excellent noxious-insect repelling effect and durability
52 | CC(C)C1CCC(C)C(CO)C1O (centres unmarked) [HMMO, 2-hydroxymethyl-menthol] | excellent noxious-insect repelling effect and durability
53 | CC(C)C1CCC(C)C(CO)C1=O (centres unmarked) [HMMT, 2-hydroxymethyl-menthone] | excellent noxious-insect repelling effect and durability
54 | CC1CCC(C(C)(C)O)C(O)C1C (centres unmarked) [MMD, p-menthane-2-methyl-3,8-diol] | excellent noxious-insect repelling effect and durability
55 | C=C1C(C)CCC(C(C)(C)O)C1O (centres unmarked) [MMED, p-menthane-2-methylene-3,8-diol] | excellent noxious-insect repelling effect and durability
56 | C=CCC1C(C)CCC(C(C)(C)O)C1O (centres unmarked) [p-menthane-2-(2-propenyl)-3,8-diol] | excellent noxious-insect repelling effect and durability
